Source: patent US6380185B1, “N-substituted benzoyl indoles as estrogenic agents” (American Home Products Corporation, priority 1999, dated 2002)

Tests used:
estrogen receptor = target: T1, estrogen receptor (Homo sapiens, UniProt P03372); test: Transfection Assay; format: cell-based
T1 sequence (P03372 1-595): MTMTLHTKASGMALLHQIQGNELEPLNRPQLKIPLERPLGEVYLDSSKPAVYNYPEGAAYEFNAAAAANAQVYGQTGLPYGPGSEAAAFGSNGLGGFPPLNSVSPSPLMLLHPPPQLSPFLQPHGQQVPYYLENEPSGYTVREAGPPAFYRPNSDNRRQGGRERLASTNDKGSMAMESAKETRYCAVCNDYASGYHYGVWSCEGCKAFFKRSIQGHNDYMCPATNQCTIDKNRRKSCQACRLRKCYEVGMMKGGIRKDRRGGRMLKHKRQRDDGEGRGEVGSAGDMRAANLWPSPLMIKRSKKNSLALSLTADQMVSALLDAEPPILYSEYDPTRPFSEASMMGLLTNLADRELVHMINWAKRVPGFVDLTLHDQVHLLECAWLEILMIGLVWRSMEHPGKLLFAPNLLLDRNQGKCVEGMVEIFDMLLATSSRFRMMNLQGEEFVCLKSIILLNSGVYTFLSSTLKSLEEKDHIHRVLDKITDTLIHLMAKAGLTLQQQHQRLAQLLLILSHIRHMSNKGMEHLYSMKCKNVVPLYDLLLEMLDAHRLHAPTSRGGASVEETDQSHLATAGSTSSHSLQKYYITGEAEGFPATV

estrogen receptor (ER) = target: T2, estrogen receptor (ER) (Homo sapiens, UniProt P03372); test: Estrogen Receptor Binding/Competition Assay ([3H]17β-estradiol displacement)
T2 construct: expressed in transfected cells; host or cells: CHO cells (ribosome-free cytosol)
T2 sequence (P03372 1-595): T1 sequence (P03372 1-595)

| melting point | Transfection Assay % Control (estrogen receptor; Concentration 1 × 10^−6 M + 1 nM estradiol) | Transfection Assay % Control (estrogen receptor; Concentration 1 × 10^−6 M, compound alone) | IC50 (estrogen receptor (ER)) | SMILES |
| --- | --- | --- | --- | --- |
| 127 to 130 °C | 13% | 0% | 200 nM | Cc1c(-c2ccc(O)cc2)n(C(=O)c2ccc(OCCN3CCCCC3)cc2)c2ccc(O)cc12 [Example No. 2, [5-Hydroxy-2-(4-hydroxy-phenyl)-3-methyl-indol-1-yl][4-(2-piperidin-1-yl-ethoxy)-phenyl]-methanone] |
| 48 to 51 °C | – | – | – | Cc1c(-c2ccc(OCc3ccccc3)cc2)n(C(=O)c2ccc(OCCN3CCCCC3)cc2)c2ccc(OCc3ccccc3)cc12 [compound 1, [5-Benzyloxy-2-(4-benzyloxy-phenyl)-3-methyl-indol-1-yl]-[4-(2-piperidin-1-yl-ethoxy)-phenyl]-methanone] |
